These results are taken from patent US5932709A (University of Michigan, priority 1997, dated 1999).

In one data set the test system is carcinoma cells. As to conditions: in words; hydrochloride; cited from earlier work.
Another data set relates to tumor growth. As to conditions: in words; cited from earlier work.
For data set [1] the following is noted: as hydrochloride trihydrate; cited from earlier work.
The test system of the next data set is topoisomerase I. As to conditions: in words; hydrochloride; cited from earlier work.
A further data set has as its system tumor cells. Description: MTT growth inhibition across tumor cell lines (P388, P388/CPT, B16, HT-29, MCF-7M). The class given is cell-based. As to conditions: vs camptothecin. The protocol:
(§1) [See "Rapid Colorimetric Assay For Cellular Growth And Survival: Application To Proliferation And Cytotoxicity Assays," J. Immun. Meth. 65:55 (1983)]. The assay utilizes a tetrazolium salt to quantitatively measure mammalian cell survival and proliferation by colorimetric methods. In particular, MTT, a pale yellow compound with minimal absorbance, is incubated with cancerous cells in addition to (or in the absence of) a particular camptothecin analog. Living cells with active mitochondrial enzymes metabolize the MTT into a dark blue/purple formazan product with high absorbance. The exact procedure used to test the camptothecin analogs of the present invention is described below.
Exponentially growing cells (1-2×10^3 cells, unless specified otherwise) in 0.1 mL medium were seeded on day 0 in a 96-well microtiter plate. On day 1, 0.1 mL aliquots of medium containing graded concentrations of test analogs were added to the cell plates. After incubation at 37° C. in a humidified incubator for 3 days (P388, P388/CPT, B16) or 6 days (HT-29, MCF-7M), the plates were centrifuged briefly and 100 μL of the growth medium was removed. Cell cultures were incubated with 50 μL of 3-(4,5-dimethylthiazol-2-yl)-2,5-diphenyl-tetrazolium bromide [MTT, 1 mg/mL in Dulbecco's phosphate buffered saline (PBS)] for 4 hr at 37° C. The resulting purple formazan precipitate was solubilized with 200 μL of 0.04 N HCl in isopropyl alcohol. Absorbance was monitored in a BioRad Model 3550 Microplate Reader at a test wavelength of 570 nm and a reference wavelength of 630 nm. The absorbance is transferred to a PC 486 computer. The IC50 values were determined by a computer program (EZ-ED50) that fits all of the data to the following four-parameter logistic equation: […]

Data set [2] addresses T1, human placental topoisomerase I (Homo sapiens, UniProt P11387).
T1 construct: purchased TopoGen; host or cells: human placenta
T1 sequence (P11387 1-765): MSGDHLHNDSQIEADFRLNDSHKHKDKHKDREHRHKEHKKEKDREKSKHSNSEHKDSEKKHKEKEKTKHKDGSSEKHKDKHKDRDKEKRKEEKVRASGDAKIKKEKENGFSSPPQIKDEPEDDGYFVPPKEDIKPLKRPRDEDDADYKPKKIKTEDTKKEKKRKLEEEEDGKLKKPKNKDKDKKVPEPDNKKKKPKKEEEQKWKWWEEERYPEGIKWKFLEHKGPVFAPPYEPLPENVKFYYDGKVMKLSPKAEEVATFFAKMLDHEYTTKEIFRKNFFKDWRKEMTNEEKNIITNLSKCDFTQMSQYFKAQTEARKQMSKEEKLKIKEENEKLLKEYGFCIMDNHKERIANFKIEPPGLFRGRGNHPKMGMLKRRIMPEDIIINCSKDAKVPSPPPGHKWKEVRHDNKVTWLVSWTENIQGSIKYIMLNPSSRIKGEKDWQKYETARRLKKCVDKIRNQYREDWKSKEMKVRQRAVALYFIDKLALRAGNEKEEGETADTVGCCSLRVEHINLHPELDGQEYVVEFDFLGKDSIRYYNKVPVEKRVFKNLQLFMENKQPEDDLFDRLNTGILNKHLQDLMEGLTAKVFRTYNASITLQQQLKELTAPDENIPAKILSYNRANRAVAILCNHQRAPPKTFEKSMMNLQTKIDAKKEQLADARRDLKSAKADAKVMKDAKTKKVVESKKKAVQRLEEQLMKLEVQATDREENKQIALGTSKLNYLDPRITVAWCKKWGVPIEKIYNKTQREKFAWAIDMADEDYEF
Kind of data set: Inhibition of topoisomerase I catalytic activity (relaxation of supercoiled SV40 DNA). As to conditions: highest concentration tested (100 μg/mL), in words. It is filed as biochemical. The protocol:
The topoisomerase I catalytic activity was measured by converting the supercoiled SV40 DNA (Form I) to the relaxed form (Form Io). All reactions were performed in 20 μL reaction buffer (Tris-HCl, 10 mM, pH 7.5; EDTA, 1 mM; NaCl, 100 mM) with 0.25 μg SV40 DNA, 0.5 unit of human placental topoisomerase I (TopoGen) and graded concentrations of the analog tested. The reaction mixtures were incubated at 37° C. for 30 minutes. […] Ten μL of the reaction mixture was loaded onto a 1% agarose gel prepared in TAE buffer containing 2 μg/mL chloroquine; and the electrophoresis was performed at 82 volt for 4.5 hr in the TAE buffer containing 2 μg/mL chloroquine. […] The gels were then stained with 0.5 μg/mL ethidium bromide solution for 30 min or longer (if chloroquine is present during the electrophoresis step), and destained with 5 changes of deionized water. […] The DNA bands (image) on the negative were densitometrically scanned with a Molecular Dynamic Personal Densitometer. The percent inhibition of Toposiomerase I activity is calculated based on the following equation:
% Inhibition=(FSC(E+D) -FSC(E))/(FSC(C)
where FSC(E+D) represents fraction of supercoiled DNA in the presence of enzyme and drug; FSC(E) represents fraction of supercoiled DNA in the presence of enzyme alone; FSC(C) represents fraction of supercoiled DNA in the untreated SV40 DNA; the IC50 value was estimated using the same four-parameter logistic equation described in the in vitro growth inhibition studies.

A short description of data set [3]: Water solubility in phosphate buffered saline (spectrophotometric assay). The class given is physicochemical. As to conditions: aqueous buffer; water solubility; PBS pH 7.5, room temperature, 24 hr. The protocol:
Approximately 5 mg of test compound was suspended in 1 mL of PBS in a 1.5 mL cryovial. The suspensions were mixed continuously on a Thermolyne vari-mix at room temperature for 24 hr. The suspensions were then centrifuged at 14000×g for 2 minutes to separate the undissolved materials. The supernatant fluids were diluted appropriately with PBS and the ultraviolet spectrums were recorded on a Beckman 640 DU spectrophotometer. For comparison, a standard stock (2 mg/mL in DMSO) solution was prepared for each analog. The ultraviolet spectrum of a 20 of 40 μg/mL standard working solution was measured. The water solubility of each analog was calculated based on the following formula:
Cunknown =Cstandard ×(Aunknown
where Cunknown is the concentration of the unknown solution to be determined; Cstandard is the concentration of the standard working solution (either 20 or 40 μg/mL); Astandard is the absorbance at 350 nm of the standard working solution; DDilution is the appropriate dilution factor used so that the absorbance of the unknown working solution is within the dynamic range of the UV spectrophotometer (less than 2 absorbance units).

The test system of data set [4] is HT-29 human colon adenocarcinoma cells. Kind of data set: MTT growth inhibition, HT-29. The class given is cell-based. As to conditions: 144 h, HT-29, MTT, 6 days, read-out: Growth Inhibitory Activity IC50. The protocol: (§2) Camptothecin was used as a control to test the anti-cancer efficacy of the novel camptothecin analogs of the present invention.
(§3) Murine B16 melanoma cell line was grown in RPMI 1640 medium supplemented with 10% heat-inactivated fetal bovine serum, 2 mM L-glutamine, 50 units/mL penicillin, 50 μg/mL streptomycin, 25 μg/mL gentamicin, 0.75% sodium bicarbonate 10 mM HEPES buffer (pH 7.4), and 0.06 mg/mL AntiPPLO. Murine P388 leukemic cell line and human HT-29 colon adenocarcinoma line were maintained in RPMI 1640 medium supplemented with 10% heat-inactivated fetal bovine serum. […] MCF-7M human breast adenocarcinoma was maintained in IMEM supplemented with 5% non heat-inactivated fetal bovine serum and 1 nM insulin.
as §1
(§4) Exponentially growing cells (1-2×10^3 cells, unless specified otherwise) in 0.1 mL medium were seeded on day 0 in a 96-well microtiter plate. On day 1, 0.1 mL aliquots of medium containing graded concentrations of test analogs were added to the cell plates. After incubation at 37° C. in a humidified incubator for 3 days (P388, P388/CPT, B16) or 6 days (HT-29, MCF-7M), the plates were centrifuged briefly and 100 μL of the growth medium was removed. Cell cultures were incubated with 50 μL of 3-(4,5-dimethylthiazol-2-yl)-2,5-diphenyl-tetrazolium bromide [MTT, 1 mg/mL in Dulbecco's phosphate buffered saline (PBS)] for 4 hr at 37° C. The resulting purple formazan precipitate was solubilized with 200 μL of 0.04 N HCl in isopropyl alcohol. Absorbance was monitored in a BioRad Model 3550 Microplate Reader at a test wavelength of 570 nm and a reference wavelength of 630 nm. The absorbance is transferred to a PC 486 computer. The IC50 values were determined by a computer program (EZ-ED50) that fits all of the data to the following four-parameter logistic equation:
(§5) Y=(Amax -Amin)/(1+[X/IC^50 ])^n +Amin
(§6) where Amax is the absorbance of control cells, Amin is the absorbance of cells in the presence of highest agent concentration, IC^50 is the concentration of agent that inhibits the cell growth by 50% of control cells (based on the absorbance) and n is the slope of the curve.

For data set [5] the following is noted: cited from earlier work.
Data set [6] deals with P388/CPT CPT-resistant murine leukemia cells. Description: MTT growth inhibition, P388/CPT. It is filed as cell-based. As to conditions: Mus musculus, 72 h, 3 days, read-out: Growth Inhibitory Activity IC50. The protocol: as §2, §3, §1, §4, §5, §6
The subject of data set [7] is B16 murine melanoma cells. Kind of data set: MTT growth inhibition, B16. The class given is cell-based. As to conditions: Mus musculus, 72 h, 3 days, read-out: Growth Inhibitory Activity IC50. The protocol: as §2, §3, §1, §4, §5, §6
Data set [8] relates to P388 murine leukemia cells. Description: MTT growth inhibition, P388. It is filed as cell-based. As to conditions: Mus musculus, 72 h, 3 days, read-out: Growth Inhibitory Activity IC50. The protocol: as §2, §3, §1, §4, §5, §6
Data set [9] deals with MCF-7 human breast tumor cells. Kind of data set: MTT growth inhibition, MCF-7. The class given is cell-based. The following applies: MCF7, 144 h, MCF-7, MTT, 6 days, read-out: Growth Inhibitory Activity IC50. The protocol: as §2, §3, §1, §4, §5, §6

≈ marks a conversion by molar mass, not a printed value. Entries after “also recorded” stand apart in the source; their conditions may differ. Structures can show the parent of a compound that is named as a salt.

As to `CCc1c2c(nc3ccc(OC(=O)N4CCC(N5CCCCC5)CC4)cc13)-c1cc3c(c(=O)n1C2)COC(=O)[C@]3(O)CC` [CPT-11, 7-ethyl-10-[4-(piperidino)-1-piperidino]carboxylcamptothecin hydrochloride], the “in vitro efficacy / activity” value in the data set on carcinoma cells is “negligible in vitro activity”. In the data set with tumor growth, the “effectiveness against tumor growth in animal studies” value is “significant in vivo preclinical activity”. In addition, in data set [1], the water solubility is 32000 µg/mL. Besides, the “inhibition of Topoisomerase I activity” value in the data set with topoisomerase I was “inability to inhibit Topoisomerase I activity; also recorded: lack of topoisomerase I inhibitory activity”.
As for `CCCCCC(=O)O[C@]1(CC)C(=O)OCc2c1cc1n(c2=O)Cc2cc3ccccc3nc2-1` [HAR2, camptothecin 20-n-hexanoate], the “reduction of growth inhibitory activity” value with tumor cells is recorded as around 100 fold. In addition, the “topoisomerase I inhibition” value in data set [2] is given as “Neither the acetate (HAR3) nor the hexanoate (HAR2) inhibited the topoisomerase I activity”. Further, the solubility (in general, how much of the substance goes into solution per volume) at 24 h in [3] was found to be 2.9 µg/mL (≈ 6.49 µM).
For `CC[C@@]1(OC(C)=O)C(=O)OCc2c1cc1n(c2=O)Cc2cc3ccccc3nc2-1` [HAR3], in that order: “approximately 10 fold”, “Neither the acetate (HAR3) nor the hexanoate (HAR2) inhibited the topoisomerase I activity” and 6.5 µg/mL (≈ 16.6 µM).
Take `CC[C@@]1(O)C(=O)OCc2c1cc1n(c2=O)Cc2cc3ccccc3nc2-1` [camptothecin, reference compound]: the IC50 (commonly the midpoint of a concentration-inhibition curve) in [4] came out at 0.002 µg/mL (≈ 0.00574 µM); in data set [6], 1.12 µg/mL (≈ 3.22 µM); in data set [7], 0.015 µg/mL (≈ 0.0431 µM); in data set [8], 0.01 µg/mL (≈ 0.0287 µM); in data set [9], 0.001 µg/mL (≈ 0.00287 µM). In data set [5] (human, in vivo), the “side effects in human clinical studies” value is “vomiting and diarrhea to myelosuppression and hemorrhagic cystitis”. Moreover, the “effectiveness against tumor growth in animal studies” value in the data set with tumor growth is recorded as “significant efficacy in animal tumor models”. Further, the concentration in solution in data set [3] (solubility at 24 h) was 20 µg/mL (≈ 57.4 µM).
Consider `CC[C@@](O)(C(=O)O)c1cc2n(c(=O)c1CO)Cc1cc3ccccc3nc1-2` [sodium salt of camptothecin], for which the anti-cancer efficacy entry in data set [5] (sodium salt vs unmodified camptothecin, clinical trials) was “much less than unmodified camptothecin”.
